Results: patent publication US8193173B2, “Liver function ameliorant” (Tokyo University of Agriculture and Technology TLO Co., Ltd., priority 2006, dated 2012)

What was measured:
[1] = tested on: chronic hepatitis model mice; assay: Liver function ameliorative effects in chronic hepatitis model mice (carbon tetrachloride); plasma AST, ALT, ChE; type: in vivo, ICR mice
Description: Production of chronic hepatitis model mice was carried out according to a modified version of the method of Vogten et al. (J. Mathys Vogten et al., Int. J. Colorectal Dis. (2004), 19: 387-394).
ICR mice weighing about 30 g (age: 6 weeks, males, supplier: Sankyo Labo Service) were used in the experiment after preliminarily housing for 5 days while allowing free access to solid feed (Labo MR Stock) and distilled water. The animals were housed in an animal room set to conditions consisting of a temperature of 22±2° C., humidity of 60±5% and light-dark cycle of 12 hours.
Following preliminary housing, the animals were intraperitoneally administered carbon tetrachloride (10% corn oil solution (v/v)) three times a week. The initially dose was 330 μl/kg, the second dose was […], and all subsequent doses were 500 μl/kg. This administration was carried out over the course of six weeks to produce chronic hepatitis model mice.
After administering carbon tetrachloride for 6 weeks, the animals were divided into an orniplabin dose group and control group so as to be statistically equivalent (orniplabin dose group: 7 animals, control group: 6 animals). Orniplabin was continuously administered into the abdominal cavity at 10 mg/kg. The control group was continuously administered physiological saline into the abdominal cavity at 2 ml/kg. This procedure was carried out for 14 days.
Following completion of administration, blood samples were collected from the vena cava into a syringe barrel containing anticoagulant in the form of 3.8% sodium citrate solution ( 1/10 volume of collected blood), and the resulting blood was centrifuged immediately for 20 minutes at 3000 rpm to collect the supernatant for use as blood samples.
The levels of AST ([…], GOT), ALT (alanine aminotransferase, GPT) and ChE (cholinesterase) were measured for the resulting blood samples (Hitachi Model 7180 Autoanalyzer).

plasminogen [2] = target: T1, plasminogen (Homo sapiens, UniProt P00747); conditions: JP 2004-224737; cited from earlier work
T1 sequence (P00747 20-810 limits assumed, species assumed): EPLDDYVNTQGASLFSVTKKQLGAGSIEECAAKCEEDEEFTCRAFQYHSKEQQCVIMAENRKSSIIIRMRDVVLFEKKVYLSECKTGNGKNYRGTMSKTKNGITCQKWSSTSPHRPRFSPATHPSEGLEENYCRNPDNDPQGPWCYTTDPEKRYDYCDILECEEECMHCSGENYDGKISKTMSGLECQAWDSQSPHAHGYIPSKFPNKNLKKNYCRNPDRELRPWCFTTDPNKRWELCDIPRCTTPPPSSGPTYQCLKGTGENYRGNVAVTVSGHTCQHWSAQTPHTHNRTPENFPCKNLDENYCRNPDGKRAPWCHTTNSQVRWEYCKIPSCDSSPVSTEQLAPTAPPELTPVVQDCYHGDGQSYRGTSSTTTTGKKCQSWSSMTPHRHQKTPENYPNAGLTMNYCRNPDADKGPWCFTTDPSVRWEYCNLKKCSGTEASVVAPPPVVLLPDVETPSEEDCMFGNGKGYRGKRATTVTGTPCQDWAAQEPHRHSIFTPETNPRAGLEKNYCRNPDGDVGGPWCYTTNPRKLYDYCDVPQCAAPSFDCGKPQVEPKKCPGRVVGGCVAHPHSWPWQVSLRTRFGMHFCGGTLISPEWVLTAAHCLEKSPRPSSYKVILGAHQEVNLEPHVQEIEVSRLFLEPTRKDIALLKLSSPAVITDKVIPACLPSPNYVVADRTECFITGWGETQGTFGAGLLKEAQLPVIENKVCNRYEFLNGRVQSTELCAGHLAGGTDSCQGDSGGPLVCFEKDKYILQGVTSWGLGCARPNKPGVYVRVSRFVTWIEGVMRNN

plasminogen [3] = target: T1, plasminogen; conditions: cited from earlier work
[4] = tested on: pulmonary embolism model rats; conditions: pulmonary embolism model rats in vivo; cited from earlier work
[5] = 10 mg/kg into the abdominal cavity for 14 days, versus normal level

Structure (SMILES): CC(C)=CCC/C(C)=C/CCC1(C)Oc2c(c(O)cc3c2CN(CCCC(C(=O)O)N2Cc4c(cc(O)c5c4OC(C)(CC/C=C(\C)CCC=C(C)C)C(O)C5)C2=O)C3=O)CC1O (stereo not drawn) [orniplabin]
- plasma AST, orniplabin dose group as compared with the control group ([1]; 10 mg/kg into the abdominal cavity for 14 days after 6 weeks carbon tetrachloride, FIG. 1): significant (P<0.01) decrease
- plasma ALT, orniplabin dose group versus control group ([1]; 10 mg/kg into the abdominal cavity for 14 days after 6 weeks carbon tetrachloride, FIG. 2): no significant differences observed
- plasma ChE, orniplabin dose group as compared with the control group ([1]; 10 mg/kg into the abdominal cavity for 14 days after 6 weeks carbon tetrachloride, FIG. 3): significant (P<0.01) increase
- plasma ALT, orniplabin dose group as compared with the normal group ([1]; 10 mg/kg into the abdominal cavity for 14 days, FIG. 2): increases were not observed
- cholinesterase levels (protein synthesis ability of the liver) [1, 5]: recovered to the same level as the normal level
- degree of impaired liver function (AST and ALT) [1, 5]: recover to nearly the normal level
- plasminogen activation (plasminogen [2]): promotes plasminogen activation
- binding of plasminogen to fibrin (plasminogen [3]): promotes binding of plasminogen to fibrin
- dissolution of pulmonary embolisms thrombus [4]: promotes dissolution of pulmonary embolisms thrombus
